# Measured values as given in patent US20260337156A1, “SOLUBILIZING COMPOUNDS” (Vivesto AB, priority 2022, published 2026).
# Columns and labels:
# [1] = drug loading capacity (ratio of amount API:(API+excipient)); format: physicochemical
# Procedure: The solution was evaporated to dryness in a rotary evaporator. Final drying was performed in a desiccator to remove residual solvent. Hydration of the dried film was performed by adding water for injection (1.2 mL). […] Drug loading capacity is defined as the ratio of amount API:(API+excipient).
# 20 mg of example 1 was dispensed into a 25 mL round bottom flask and dissolved in methanol (3 mL). 800 μL of a stock solution of docetaxel in methanol (5 mg/mL) was added. The solution was evaporated to dryness in a rotary evaporator. Final drying was performed in a desiccator to remove residual solvent. Hydration of the dried film was performed by adding water for injection (1.0 mL) to a concentration of 4 mg/mL of docetaxel. The 4 mg/mL concentration was further diluted with 0.9% sodium chloride according to the table below.
# 11 mg of example 1 was dispensed into a 25 mL round bottom flask and dissolved in methanol (2 mL). 740 μL of a stock solution of docetaxel in methanol (4.96 mg/mL) was added. The solution was evaporated to dryness in a rotary evaporator. Final drying was performed in a desiccator to remove residual solvent.
# 4.5 mg of compound 1 was dispensed into a 25 mL round bottom flask and dissolved in methanol (2 mL). 1500 μL of a stock solution of cabazitaxel in methanol (1.00 mg/mL) was added. The solution was evaporated to dryness in a rotary evaporator. Final drying was performed in a desiccator to remove residual solvent.
# 4.5 mg of compound 1 was dispensed into a 25 mL round bottom flask and dissolved in methanol (2 mL). 1500 μL of a stock solution of cyclosporin in methanol (1.00 mg/mL) was added. The solution was evaporated to dryness in a rotary evaporator. Final drying was performed in a desiccator to remove residual solvent.
# 4.0 mg of compound 2 was dispensed into a 25 mL round bottom flask and dissolved in methanol (3 mL). 250 μL of a stock solution of docetaxel in methanol (5 mg/mL) was added. The solution was evaporated to dryness in a rotary evaporator. Final drying was performed in a desiccator to remove residual solvent. Hydration of the dried film was performed by adding water for injection (1.25 mL). […]
# 4.5 mg of compound 3 was dispensed into a 25 mL round bottom flask and dissolved in methanol (3 mL). 305 μL of a stock solution of docetaxel in methanol (4.96 mg/mL) was added. The solution was evaporated to dryness in a rotary evaporator. Final drying was performed in a desiccator to remove residual solvent.
# 4.5 mg of compound 3 was dispensed into a 25 mL round bottom flask and dissolved in methanol (3 mL). […] of a stock solution of docetaxel in methanol (4.96 mg/mL) was added. The solution was evaporated to dryness in a rotary evaporator. Final drying was performed in a desiccator to remove residual solvent.
# [2] = micellar particle size and polydispersity index (ZetaSizer, dynamic light scattering) of drug formulations at different dilutions; format: physicochemical
# Procedure: The particle size of the micelles in the composition is typically in the range of about 5 to about 150 nm. The particle size may be determined e.g. using Dynamic Light Scattering (DLS) in 0.9% NaCl at 1 mg/mL drug concentration, preferably using a red laser with a wavelength of 633 nm.
# Micellar size was measured using a ZetaSizer from Malvern Panalytical. […]
# 20 mg of example 1 was dispensed into a 25 mL round bottom flask and dissolved in methanol (3 mL). 800 μL of a stock solution of docetaxel in methanol (5 mg/mL) was added. The solution was evaporated to dryness in a rotary evaporator. Final drying was performed in a desiccator to remove residual solvent. Hydration of the dried film was performed by adding water for injection (1.0 mL) to a concentration of 4 mg/mL of docetaxel. The 4 mg/mL concentration was further diluted with 0.9% sodium chloride according to the table below. […]
# A serial dilution was performed for the system docetaxel:compound 1. A stock solution of docetaxel in methanol was mixed with a stock solution of the micelle forming agent (compound 1) in a round bottom flask at a weight ratio of 1:5. The mixture was evaporated to dryness in a rotary evaporator. Final drying was performed in a desiccator to remove residual solvent. Hydration of the dried film was performed by adding water for injection (1.0 mL) to a concentration of 1 mg/mL of docetaxel. The resulting solution was filtered through a 0.22 μm sterile filter and further diluted with 0.9% sodium chloride solution.
# 4.5 mg of compound 1 was dispensed into a 25 mL round bottom flask and dissolved in methanol (2 mL). 1500 μL of a stock solution of cabazitaxel in methanol (1.00 mg/mL) was added. The solution was evaporated to dryness in a rotary evaporator. Final drying was performed in a desiccator to remove residual solvent. […]
# [3] = docetaxel, ratio 3:1, docetaxel conc. 1 mg/mL
# [4] = micelles with cabazitaxel, ratio 3:1, 0.9% NaCl, cabazitaxel conc. 0.25 mg/mL
# [5] = micelles with cabazitaxel, ratio 3:1, 0.9% NaCl, cabazitaxel conc. 0.5 mg/mL
# [6] = micelles with cabazitaxel, ratio 3:1, 0.9% NaCl, cabazitaxel conc. 1 mg/mL
# [7] = micelles with cyclosporin, ratio 3:1, 0.9% NaCl, cyclosporin conc. 0.25 mg/mL
# [8] = micelles with cyclosporin, ratio 3:1, 0.9% NaCl, cyclosporin conc. 0.5 mg/mL
# [9] = micelles with cyclosporin, ratio 3:1, 0.9% NaCl, cyclosporin conc. 1 mg/mL
# [10] = micelles with docetaxel, ratio 3:1, 0.9% NaCl, docetaxel conc. 0.25 mg/mL
# [11] = micelles with docetaxel, ratio 3:1, 0.9% NaCl, docetaxel conc. 0.5 mg/mL
# [12] = micelles with docetaxel, ratio 3:1, 0.9% NaCl, docetaxel conc. 1 mg/mL
# [13] = micelles with docetaxel, ratio 5:1, docetaxel conc. 0.25 mg/mL
# [14] = micelles with docetaxel, ratio 5:1, docetaxel conc. 0.5 mg/mL
# [15] = micelles with docetaxel, ratio 5:1, docetaxel conc. 1 mg/mL
# [16] = micelles with docetaxel, 1.2 mg docetaxel + 3.8 mg compound, water 1.2 mL + 0.9% NaCl 1.0 mL
# [17] = serial dilution, docetaxel:compound 1:5, compound conc. 0.08 mM
# [18] = serial dilution, docetaxel:compound 1:5, compound conc. 0.12 mM
# [19] = serial dilution, docetaxel:compound 1:5, compound conc. 0.15 mM
# [20] = serial dilution, docetaxel:compound 1:5, compound conc. 0.3 mM
# [21] = serial dilution, docetaxel:compound 1:5, compound conc. 0.6 mM
# [22] = serial dilution, docetaxel:compound 1:5, compound conc. 1.2 mM
# [23] = serial dilution, docetaxel:compound 1:5, compound conc. 2.4 mM
# [24] = serial dilution, docetaxel:compound 1:5, compound conc. 4.8 mM
# [25] = micelles with docetaxel, ratio 2:1, 0.9% NaCl, docetaxel conc. 0.25 mg/mL
# [26] = micelles with docetaxel, ratio 2:1, 0.9% NaCl, docetaxel conc. 0.5 mg/mL
# [27] = micelles with docetaxel, ratio 2:1, 0.9% NaCl, docetaxel conc. 1 mg/mL
smiles,measurement,setting,value
COc1cc(C)c(/C=C/C(C)=C/C=C/C(C)=C/C(=O)N(CCS(=O)(=O)[O-])C2CCCCC2)c(C)c1C.[Na+] [Compound 1],Drug loading capacity,"[1]; cabazitaxel, ratio 3:1, cabazitaxel conc. 0.25 mg/mL",25%
same,Drug loading capacity,"[1]; cabazitaxel, ratio 3:1, cabazitaxel conc. 0.5 mg/mL",25%
same,Drug loading capacity,"[1]; cabazitaxel, ratio 3:1, cabazitaxel conc. 1 mg/mL",25%
same,Drug loading capacity,"[1]; cyclosporin, ratio 3:1, cyclosporin conc. 0.25 mg/mL",25%
same,Drug loading capacity,"[1]; cyclosporin, ratio 3:1, cyclosporin conc. 0.5 mg/mL",25%
same,Drug loading capacity,"[1]; cyclosporin, ratio 3:1, cyclosporin conc. 1 mg/mL",25%
same,Drug loading capacity,[1]; docetaxel 1.2 mg + compound 3.8 mg,24%
same,Drug loading capacity,[1]; [3],25%
same,Drug loading capacity,"[1]; docetaxel, ratio 5:1, docetaxel conc. 1 mg/mL",17%
same,trend of micellar size and RSD during dilution,"[2]; docetaxel:compound 1:5, serial dilution with 0.9% NaCl",The micellar size and RSD showed no significant trend during dilution
same,Particle size,[2]; [4],121.2 nm
same,Polydispersity index,[2]; [4],0.079
same,Particle size,[2]; [5],111.2 nm
same,Polydispersity index,[2]; [5],0.102
same,Particle size,[2]; [6],87.6 nm
same,Polydispersity index,[2]; [6],0.145
same,Particle size,[2]; [7],60.1 nm
same,Polydispersity index,[2]; [7],0.258
same,Particle size,[2]; [8],53.3 nm
same,Polydispersity index,[2]; [8],0.293
same,Particle size,[2]; [9],41.7 nm
same,Polydispersity index,[2]; [9],0.212
same,Particle size,[2]; [10],56.0 nm
same,Polydispersity index,[2]; [10],0.29
same,Particle size,[2]; [11],52.6 nm
same,Polydispersity index,[2]; [11],0.25
same,Particle size,[2]; [12],47.7 nm
same,Polydispersity index,[2]; [12],0.24
same,Particle size,[2]; [13],49.6 nm
same,Polydispersity index,[2]; [13],0.25
same,Particle size,[2]; [14],41.5 nm
same,Polydispersity index,[2]; [14],0.24
same,Particle size,[2]; [15],29.2 nm
same,Polydispersity index,[2]; [15],0.24
same,Particle size,[2]; [16],7.0 nm
same,Polydispersity index,[2]; [16],0.20
same,Particle size,[2]; [17],33.73 nm
same,"Polydispersity index, pdi",[2]; [17],0.45
same,Particle size,[2]; [18],32.72 nm
same,"Polydispersity index, pdi",[2]; [18],0.39
same,Particle size,[2]; [19],34.06 nm
same,"Polydispersity index, pdi",[2]; [19],0.34
same,Particle size,[2]; [20],37.85 nm
same,"Polydispersity index, pdi",[2]; [20],0.25
same,Particle size,[2]; [21],36.53 nm
same,"Polydispersity index, pdi",[2]; [21],0.18
same,Particle size,[2]; [22],36.5 nm
same,"Polydispersity index, pdi",[2]; [22],0.16
same,Particle size,[2]; [23],36.2 nm
same,"Polydispersity index, pdi",[2]; [23],0.14
same,Particle size,[2]; [24],35.4 nm
same,"Polydispersity index, pdi",[2]; [24],0.11
COc1cc(C)c(/C=C/C(C)=C/C=C/C(C)=C/C(=O)N(C)CCS(=O)(=O)[O-])c(C)c1C.[Na+] [Compound 3],Drug loading capacity,"[1]; docetaxel, ratio 2:1, docetaxel conc. 0.25 mg/mL",25%
same,Drug loading capacity,"[1]; docetaxel, ratio 2:1, docetaxel conc. 0.5 mg/mL",25%
same,Drug loading capacity,"[1]; docetaxel, ratio 2:1, docetaxel conc. 1 mg/mL",25%
same,Drug loading capacity,"[1]; docetaxel, ratio 3:1, docetaxel conc. 0.25 mg/mL",25%
same,Drug loading capacity,"[1]; docetaxel, ratio 3:1, docetaxel conc. 0.5 mg/mL",25%
same,Drug loading capacity,[1]; [3],25%
same,Particle size,[2]; [25],14.0 nm
same,Polydispersity index,[2]; [25],0.53
same,Particle size,[2]; [26],19.9 nm
same,Polydispersity index,[2]; [26],0.76
same,Particle size,[2]; [27],13.5 nm
same,Polydispersity index,[2]; [27],0.52
same,Particle size,[2]; [10],11.8 nm
same,Polydispersity index,[2]; [10],0.27
same,Particle size,[2]; [11],11.3 nm
same,Polydispersity index,[2]; [11],0.25
same,Particle size,[2]; [12],9.30 nm
same,Polydispersity index,[2]; [12],0.33
